The structures appear in SMILES notation.

The nature of data set [1]: Stopped-flow kinetic analysis of tetrazines with eq-5-hydroxy-trans-cyclooctene in PBS buffer at 25° C. The note with it: for k2, second order rate constant / kobs: PBS pH 7.4, 25° C.; for k2, second order rate constant: linear regression of kobs; for kobs: 0.025 mM tetrazine; for krel: relative to 5b, PBS, 25° C. The protocol: Solutions (5 mL) of tetrazines 5b, 6c, 5l, 6a and 4f (0.050 mM) were prepared in PBS buffer (pH 7.4). Solutions (10 mL) of eq-5-hydroxy-trans-cyclooctene (0.50, 0.60, 0.70, 0.80 mM) were prepared in PBS buffer (pH 7.4). The reactions between tetrazines and trans-cyclooctene were measured under pseudo-first order conditions using SX 18MV-R stopped-flow spectrophotometer (Applied Photophysics Ltd.). Each solution of tetrazine and trans-cyclooctene were injected in equal volumes via 3 mL syringes into the stopped-flow instrument at 25° C., resulting in final concentration of 0.025 mM of tetrazines and 0.25, 0.30, 0.35, 0.40 mM trans-cyclooctene. The reaction was monitored by the decay of absorbance associated with the tetrazines (5b at 263 nm, 6c at 268 nm, 5l at 274 nm, 6a at 296 nm, 4f at 266 nm). Reaction were repeated in triplicate. With Prism software, an observed rate constant, kobs, was obtained by nonlinear regression. Second order rate constants, k2, were calculated by linear regression between kobs and final concentration of trans-cyclooctene.

A short description of data set [2]: Tetrazine stability in PBS buffer in ambient light at 25° C. The format is physicochemical. The note with it: PBS buffer pH 7.4, ambient light, day 0-5. The protocol:
Solutions (3 mL) of tetrazine 5b, 5l and 6c (400 μM) were prepared in PBS buffer (pH 7.4) in vials and stored in ambient light at 25° C. Tetrazine concentrations were determined by recording the absorbance at 518 nm (6c) and 520 nm (5b and 5l) in cuvettes in day 0, 1, 3 and 5. A solution of 6a (50 μM) was prepared in PBS buffer (pH 7.4) in vials and stored in ambient light at room temperature. Tetrazine concentration was determined by recording the absorbance at 520 nm in cuvettes at day 0, 1, 3 and 5.

Data set [3] in a line: Tetrazine stability in Opti-MEM media in ambient light at 25° C. The format is physicochemical. As to conditions: 400 μM. The protocol: Solutions (10 mL) of tetrazine 5b and 6c (400 μM) were prepared in Opti-MEM media in vials and stored in ambient light at 25° C. 2 mL of solution was extracted by 2 mL of Et2O in different time point. Tetrazine concentrations were determined by recording the absorbance of Et2O at 545 nm.

The nature of data set [4]: Experimental log P. The format is physicochemical.
Data set [5] has as its system MAGL. Nature of the data set: Cellular labeling kinetics of TCO-TAMRA with MAGL probes in live human brain vascular pericytes. The data set is classed as cell-based. The note with it: for extent of MAGL labeling at the probe concentration used: 100c 1 μM or 12 32 nM, 37° C., 1 h. The protocol:
To measure the cellular labeling kinetics of TCO-TAMRA with 100c and 12, live cells were treated with 100c (1 μM) or 12 (32 nM) at 37° C. for 1 h. […] Subsequently, the cells were washed with fresh growth media, which were placed with fresh media containing 50 nM, 200 nM, or 2 μM of TCO-TAMRA, and the cells were incubated at 37° C. for 2, 5, 10, 15, 20, 30, and 60 min. To quench the reaction, the media were replaced with PBS containing 100 μM tetrazine amine, and the cells were washed with cold PBS and harvested with a scrapper.
The suspensions were centrifuged at 10,000×g for 1 min at 37° C., and the cell pellets were lysed in PBS containing 0.25% sodium dodecyl sulfate (SDS) with sonication. The protein concentration was measured with a bicinchoninic acid (BCA) assay kit (Thermo Scientific) and normalized.
In-gel fluorescence and data analysis. Same procedure as described in Example 17 was used.

The nature of data set [6]: Stopped-flow kinetic analysis of MAGL tetrazines with eq-5-hydroxy-trans-cyclooctene in MeOH at 25° C. The note with it: for kobs: 0.04 mM tetrazine, 0.40 mM trans-cyclooctene, MeOH; for kobs / krel: 25° C.; for krel: relative to 12, MeOH. The protocol:
Solutions (3 mL) of tetrazines 100a, 100b, 100c and 12 (0.080 mM) was prepared in MeOH. Solutions (3 mL) of eq-5-hydroxy-trans-cyclooctene (0.80 mM) were prepared in MeOH. The reactions between tetrazines and trans-cyclooctene were measured under pseudo-first order conditions using SX 18MV-R stopped-flow spectrophotometer (Applied Photophysics Ltd.). Each solution of tetrazine and trans-cyclooctene were injected in equal volumes via 3 mL syringes into the stopped-flow instrument at 25° C., resulting in final concentration of 0.04 mM of tetrazines and 0.40 mM trans-cyclooctene. The reaction was monitored by the decay of absorbance associated with the tetrazines (10a and 10b at 300 nm, 10c at 280 nm). Reaction were repeated in triplicate. With Prism software, an observed rate constant, kobs, was obtained by nonlinear regression.

The conditions of data set [7]: 30° C. to 400/500° C. at 5° C./min.
Description: DSC data was obtained on a Mettler-Toledo Differential Scanning Calorimeter 3+. Samples were loaded into a goldplated high-pressure pan, held at 30° C. for 10 minutes, then a gradient of 30° C. to 400/500° C. at 5° C./min.
In data set [8] the target is T1, human MAGL enzyme (Homo sapiens, UniProt Q99685).
T1 sequence (Q99685 1-303): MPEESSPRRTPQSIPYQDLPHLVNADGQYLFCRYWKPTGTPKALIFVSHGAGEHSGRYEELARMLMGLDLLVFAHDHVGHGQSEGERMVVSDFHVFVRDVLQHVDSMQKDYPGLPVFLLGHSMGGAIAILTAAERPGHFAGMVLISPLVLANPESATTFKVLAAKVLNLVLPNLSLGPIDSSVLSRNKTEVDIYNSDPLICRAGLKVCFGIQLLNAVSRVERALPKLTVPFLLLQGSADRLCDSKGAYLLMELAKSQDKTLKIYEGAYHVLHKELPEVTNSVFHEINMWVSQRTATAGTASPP
The data set can be described thus: MAGL in vitro activity assay (7-HCA substrate, fluorescence). The format is biochemical. As to conditions: human MAGL pre-treated 30 min at room temperature, 7-HCA substrate 1 h; read-out: IC50, inhibition of MAGL activity in vitro. The protocol:
MAGL in vitro activity assay. The MAGL in vitro activity assay was performed based on a reported protocol. Briefly, human MAGL enzyme was pre-treated with compounds at room temperature for 30 min, and subsequently incubated with 7-hydroxycoumarinyl arachidonate (7-HCA) as a substrate at room temperature for 1 h. The fluorescence signals were measured on an Envision plate reader (excitation 355 nm, emission 460 nm).

Data set [9] has as its target T2, endogenous MAGL (Homo sapiens, UniProt Q99685).
T2 sequence (Q99685 1-303): T1 sequence (Q99685 1-303)
The data set can be described thus: Labeling of endogenous MAGL in live cells, gel-based ABPP with TCO-TAMRA. The format is cell-based. The note with it: human brain vascular pericytes, probe 1 h, 2 μM TCO-TAMRA 30 min. The protocol: Cell culture and probe treatment. Human brain vascular pericytes were cultured in Dulbecco's Modified Eagle Medium/Nutrient Mixture F-12 (DMEM/F-12) GlutaMAX media supplemented with 5% heat-inactivated fetal bovine serum (HI FBS), 1× pericyte growth supplement (PGS), and 1× penicillin-streptomycin at 37° C. with 5% CO2 in a humidified environment. Probe treatment was performed in duplicates. Cells were plated in 6-well plates and cultured overnight in growth media. Live cells were then treated with 300 nM KML29 as a competitor compound (or DMSO as a control) at 37° C. for 1 h. Cells were subsequently treated with probe 9 (0.3 nM-3.2 μM) at 37° C. for 1 h (cells pre-treated with KML29 were treated with 32 nM of probe 9), after which the cells were washed with fresh growth media. The media were then placed with fresh media containing 2 μM of TCO-TAMRA, and the cells were incubated at 37° C. for 30 min. To quench the reaction, the media were replaced with PBS containing 100 μM tetrazine amine, and the cells were washed with cold PBS and harvested with a scrapper. The suspensions were centrifuged at 10,000×g for 1 min at 37° C., and the cell pellets were lysed in PBS containing 0.25% sodium dodecyl sulfate (SDS) with sonication. The protein concentration was measured with a bicinchoninic acid (BCA) assay kit (Thermo Scientific) and normalized. In-gel fluorescence and data analysis. The proteomes were analyzed with 1.0 mm thick 4-12% bis-tris 15-well protein gels in 2-(N-morpholino)ethanesulfonic acid (MES) buffer. The gels were scanned with a Typhoon FLA 9500 Biomolecular Imager (GE Healthcare) with the TAMRA channel with 532 nm excitation and a 575 nm long pass emission filter. To measure the total protein loading, the gels were treated with ClearPage Instant Blue (CBS Scientific) overnight, and after brief destaining with water, scanned with an Odyssey Imager (Li-COR) at the 700 nm channel. The in-gel fluorescence images were processed with ImageJ software (v1.47, NIH), and the intensities were quantified with Image Studio (v5.2, Li-COR) with background subtraction. The coomassie images were processed and quantified with the Image Studio software with background subtraction. For analysis of the cellular potency, the in-gel fluorescence intensities of the two MAGL bands were averaged, normalized with the total coomassie intensity of the corresponding sample, and fitted with a dose-response equation with Prism v7.02 (GraphPad). […] The media were then placed with fresh media containing 2 μM of TCO-TAMRA, and the cells were incubated at 37° C. for 30 min. […] The protein concentration was measured with a bicinchoninic acid (BCA) assay kit (Thermo Scientific) and normalized. In-gel fluorescence and data analysis. […]

`COC(=O)CCc1nnc(-c2ccccc2)nn1` [5b, methyl 3-(6-phenyl-1,2,4,5-tetrazin-3-yl)propanoate]: the “k2, second order rate constant” value in data set [1] came to 197.9 ± 13.36 M⁻¹ s⁻¹. Moreover, the kobs in [1] (TCO 0.25 mM) came to 0.57 s⁻¹; in [1] (TCO 0.30 mM), 0.065 s⁻¹; in [1] (TCO 0.35 mM), 0.075 s⁻¹; in [1] (TCO 0.40 mM) it was 0.87 s⁻¹. Also, the krel in data set [1] stood at 1.0. Further, the decomposition per day in [2] stood at 1.8%; in data set [3], 6.7%. The compound further gave a logP in [4] of 2.2.
On to `C=C(OCC)c1nnc(CCC(=O)OC)nn1` [6c, methyl 3-(6-(1-ethoxyvinyl)-1,2,4,5-tetrazin-3-yl)propanoate], for which the “k2, second order rate constant” value in data set [1] was 833 ± 35.7 M⁻¹ s⁻¹. The kobs in [1] (TCO 0.25 mM) worked out at 0.20 s⁻¹; in [1] (TCO 0.30 mM), 0.24 s⁻¹; in data set [1] (TCO 0.35 mM), 0.28 s⁻¹; in data set [1] (TCO 0.40 mM), 0.33 s⁻¹. In addition, the “times faster than 5b” value in [1] (reaction with 5-hydroxyTCO) is 4.2 times. In data set [1], this compound yielded a krel of 4.2. Besides, the decomposition per day in [2] came out at 3.9%; in data set [3] it was 10.8%. The compound further showed a logP in [4] of 0.89.
With `Cc1nnc(-c2ccc(-n3ccc(C4CCN(C(=O)OC(C(F)(F)F)C(F)(F)F)CC4)n3)cc2)nn1` [compound 12, reference compound], in [5], the “extent of MAGL labeling at the probe concentration used” value is listed as “full labeling of MAGL”. In data set [6], the kobs came to 0.001244 s⁻¹ and the krel was 1.
In data set [7], `Cc1nnc(SCc2ccc(-c3ccccc3)cc2)nn1` [b-Tz, 3-([1,1′-biphenyl]-4-ylmethylthio)-6-methyl-1,2,4,5-tetrazine] registered a DSC onset temperature of 170 °C and a DSC transition enthalpy of 900 J/g.
Consider `O=C(OC(C(F)(F)F)C(F)(F)F)N1CCC(CNS(=O)(=O)c2ccc(-c3nncnn3)cc2)CC1` [100c, 1,1,1,3,3,3-hexafluoropropan-2-yl 4-((4-(1,2,4,5-tetrazin-3-yl)phenylsulfonamido)methyl)piperidine-1-carboxylate], for which the IC50 in [8] worked out at 16 nM. Moreover, the “labeling of MAGL by gel-based ABPP” value in [9] is “strong labeling of MAGL”. Further, in [5] (100c 1 μM 1 h, then 2 μM TCO-TAMRA, first data point), the “time at which labeling was complete” value is on record as at most 2 min. Further, the “extent of MAGL labeling at the probe concentration used” value in data set [5] is “full labeling of MAGL”. In data set [6], this compound returned a kobs of 0.2011 s⁻¹ and a krel of 162. For the same compound, the “times more reactive than 100b” value in data set [6] (stopped flow kinetics with 5-hydroxyTCO) is recorded as 6.5 times.

The logP is the decadic logarithm of the partition coefficient of the neutral form, usually between octanol and water. Lower therefore signals lower lipophilicity. By IC50 is commonly meant the midpoint of a concentration-inhibition curve.

The values are drawn from US11767302B2, “Reagents and methods for tetrazine synthesis” (University of Delaware, priority 2020, dated 2023).
